According to publication PMC6891286, “Towards the Development of an In vivo Chemical Probe for Cyclin G Associated Kinase (GAK)” (Molecules, 2019):

Legend:
Assay in all cases: KINOMEscan
Format in all cases: binding
AURKB = target: T1, AURKB (Homo sapiens, UniProt Q96GD4); conditions: 35 at 1 µM; read-out: % inhibition
T1 construct: purchased Eurofins DiscoverX (KINOMEscan)
Description: (§1) KinomeScan Assay on 35 was performed as previously described at EuroFins DiscoverX (Fremont, CA, USA).

YANK2 = target: T2, YANK2 (Homo sapiens, UniProt Q9NY57); conditions: 35 at 1 µM; read-out: % inhibition
T2 construct: purchased EuroFins DiscoverX (Fremont, CA, USA)
T2 sequence (Q9NY57 whole entry): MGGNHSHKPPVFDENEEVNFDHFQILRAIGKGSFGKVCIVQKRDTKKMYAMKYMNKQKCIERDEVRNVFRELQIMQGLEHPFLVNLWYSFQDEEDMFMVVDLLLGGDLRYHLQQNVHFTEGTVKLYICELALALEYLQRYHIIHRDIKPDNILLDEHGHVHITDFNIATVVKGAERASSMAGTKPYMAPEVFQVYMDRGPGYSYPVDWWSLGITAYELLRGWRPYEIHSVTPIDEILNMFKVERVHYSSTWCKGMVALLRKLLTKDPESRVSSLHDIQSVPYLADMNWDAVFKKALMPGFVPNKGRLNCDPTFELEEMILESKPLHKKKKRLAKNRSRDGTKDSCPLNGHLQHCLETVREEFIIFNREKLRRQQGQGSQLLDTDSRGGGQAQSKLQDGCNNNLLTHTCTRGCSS
Description: as §1

CAMK1 = target: T3, CAMK1 (Homo sapiens, UniProt Q14012); conditions: 35 at 1 µM; read-out: % inhibition
T3 construct: purchased Eurofins DiscoverX (KINOMEscan)
T3 sequence (Q14012 whole entry): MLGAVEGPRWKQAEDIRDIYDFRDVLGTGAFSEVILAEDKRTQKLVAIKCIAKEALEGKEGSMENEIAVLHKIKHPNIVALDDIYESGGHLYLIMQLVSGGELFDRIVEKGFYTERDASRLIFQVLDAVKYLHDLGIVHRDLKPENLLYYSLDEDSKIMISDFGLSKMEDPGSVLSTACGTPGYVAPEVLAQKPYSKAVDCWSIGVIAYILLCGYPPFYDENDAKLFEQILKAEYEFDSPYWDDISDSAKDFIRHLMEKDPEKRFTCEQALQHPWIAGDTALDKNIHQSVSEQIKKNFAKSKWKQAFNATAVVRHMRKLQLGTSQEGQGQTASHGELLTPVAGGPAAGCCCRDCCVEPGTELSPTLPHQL
Description: as §1

TXK = target: T4, TXK (Homo sapiens, UniProt P42681); conditions: 35 at 1 µM; read-out: % inhibition
T4 construct: purchased Eurofins DiscoverX (KINOMEscan)
Description: as §1

INSRR = target: T5, INSRR (Homo sapiens, UniProt P14616); conditions: 35 at 1 µM; read-out: % inhibition
T5 construct: purchased Eurofins DiscoverX (KINOMEscan)
Description: as §1

YSK4 = target: T6, YSK4 (Homo sapiens, UniProt Q56UN5); conditions: 35 at 1 µM; read-out: % inhibition
T6 construct: purchased Eurofins DiscoverX (KINOMEscan)
Description: as §1

LRRK2(G2019S) = target: T7, LRRK2(G2019S) (Homo sapiens, UniProt Q5S007, G2019S); conditions: 35 at 1 µM; read-out: % inhibition
T7 construct: purchased Eurofins DiscoverX (KINOMEscan)
Description: as §1

CAMK1G = target: T8, CAMK1G (Homo sapiens, UniProt Q96NX5); conditions: 35 at 1 µM; read-out: % inhibition
T8 construct: purchased Eurofins DiscoverX (KINOMEscan)
Description: as §1

MAP4K2 = target: T9, MAP4K2 (Homo sapiens, UniProt Q12851); conditions: 35 at 1 µM; read-out: % inhibition
T9 construct: purchased Eurofins DiscoverX (KINOMEscan)
Description: as §1

EPHA6 = target: T10, EPHA6 (Homo sapiens, UniProt Q9UF33); conditions: 35 at 1 µM; read-out: % inhibition
T10 construct: purchased Eurofins DiscoverX (KINOMEscan)
Description: as §1

PIK3CA(M1043I) = target: T11, PIK3CA(M1043I) (Homo sapiens, UniProt P42336, M1043I); conditions: 35 at 1 µM; read-out: % inhibition
T11 construct: purchased Eurofins DiscoverX (KINOMEscan)
Description: as §1

CASK = target: T12, CASK (Homo sapiens, UniProt O14936); conditions: 35 at 1 µM; read-out: % inhibition
T12 construct: purchased Eurofins DiscoverX (KINOMEscan)
Description: as §1

CTK = target: T13, CTK (Homo sapiens, UniProt P42679); conditions: 35 at 1 µM; read-out: % inhibition
T13 construct: purchased Eurofins DiscoverX (KINOMEscan)
T13 sequence (P42679 whole entry): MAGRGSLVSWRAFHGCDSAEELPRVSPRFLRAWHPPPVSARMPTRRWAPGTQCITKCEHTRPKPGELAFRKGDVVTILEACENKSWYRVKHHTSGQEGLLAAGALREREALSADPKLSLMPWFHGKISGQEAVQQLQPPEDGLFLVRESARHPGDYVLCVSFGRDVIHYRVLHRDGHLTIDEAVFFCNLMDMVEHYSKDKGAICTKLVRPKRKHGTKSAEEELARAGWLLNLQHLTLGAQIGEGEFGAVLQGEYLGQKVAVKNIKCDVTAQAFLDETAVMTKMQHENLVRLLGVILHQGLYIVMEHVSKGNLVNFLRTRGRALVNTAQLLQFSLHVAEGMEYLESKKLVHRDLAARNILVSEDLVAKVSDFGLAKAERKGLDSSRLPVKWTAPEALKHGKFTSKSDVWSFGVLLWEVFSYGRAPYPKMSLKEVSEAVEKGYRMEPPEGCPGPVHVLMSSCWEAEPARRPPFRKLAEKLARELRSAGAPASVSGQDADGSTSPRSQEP
Description: as §1

BRSK1 = target: T14, BRSK1 (Homo sapiens, UniProt Q8TDC3); conditions: 35 at 1 µM; read-out: % inhibition
T14 construct: purchased Eurofins DiscoverX (KINOMEscan)
T14 sequence (Q8TDC3 whole entry): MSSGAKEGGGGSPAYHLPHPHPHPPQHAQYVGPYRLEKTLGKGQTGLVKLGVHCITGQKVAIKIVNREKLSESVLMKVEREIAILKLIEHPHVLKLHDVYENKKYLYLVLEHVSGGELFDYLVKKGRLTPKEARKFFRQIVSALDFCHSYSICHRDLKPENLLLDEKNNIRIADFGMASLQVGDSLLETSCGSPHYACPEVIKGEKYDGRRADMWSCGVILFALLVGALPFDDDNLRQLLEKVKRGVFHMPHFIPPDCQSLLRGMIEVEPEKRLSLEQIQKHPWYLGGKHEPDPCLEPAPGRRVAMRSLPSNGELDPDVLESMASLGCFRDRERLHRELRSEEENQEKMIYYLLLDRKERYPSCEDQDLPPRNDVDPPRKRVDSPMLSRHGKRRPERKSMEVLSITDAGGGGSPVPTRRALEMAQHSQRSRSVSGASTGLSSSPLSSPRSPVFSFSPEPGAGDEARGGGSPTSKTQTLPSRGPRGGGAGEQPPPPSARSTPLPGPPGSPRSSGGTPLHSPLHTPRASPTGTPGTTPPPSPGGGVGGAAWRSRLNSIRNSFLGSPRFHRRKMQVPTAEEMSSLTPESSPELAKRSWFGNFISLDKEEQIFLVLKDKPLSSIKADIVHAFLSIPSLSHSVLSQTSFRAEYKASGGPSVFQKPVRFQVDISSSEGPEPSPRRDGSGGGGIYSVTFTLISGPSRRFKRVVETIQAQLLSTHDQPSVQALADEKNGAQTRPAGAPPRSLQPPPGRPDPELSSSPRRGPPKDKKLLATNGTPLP
Description: as §1

PHKG2 = target: T15, PHKG2 (Homo sapiens, UniProt P15735); conditions: 35 at 1 µM; read-out: % inhibition
T15 construct: purchased Eurofins DiscoverX (KINOMEscan)
T15 sequence (P15735 whole entry): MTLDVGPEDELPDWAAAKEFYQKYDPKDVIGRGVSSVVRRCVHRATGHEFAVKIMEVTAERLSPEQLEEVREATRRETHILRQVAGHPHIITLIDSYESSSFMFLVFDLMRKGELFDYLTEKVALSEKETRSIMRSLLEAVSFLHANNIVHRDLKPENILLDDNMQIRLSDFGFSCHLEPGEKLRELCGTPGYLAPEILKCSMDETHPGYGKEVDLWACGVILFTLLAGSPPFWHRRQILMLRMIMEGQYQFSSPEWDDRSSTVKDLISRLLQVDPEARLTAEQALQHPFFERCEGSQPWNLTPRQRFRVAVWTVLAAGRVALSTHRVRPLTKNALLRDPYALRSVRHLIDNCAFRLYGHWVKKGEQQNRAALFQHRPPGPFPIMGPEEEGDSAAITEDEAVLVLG
Description: as §1

MYLK4 = target: T16, MYLK4 (Homo sapiens, UniProt Q86YV6); conditions: 35 at 1 µM; read-out: % inhibition
T16 construct: purchased Eurofins DiscoverX (KINOMEscan)
T16 sequence (Q86YV6 whole entry): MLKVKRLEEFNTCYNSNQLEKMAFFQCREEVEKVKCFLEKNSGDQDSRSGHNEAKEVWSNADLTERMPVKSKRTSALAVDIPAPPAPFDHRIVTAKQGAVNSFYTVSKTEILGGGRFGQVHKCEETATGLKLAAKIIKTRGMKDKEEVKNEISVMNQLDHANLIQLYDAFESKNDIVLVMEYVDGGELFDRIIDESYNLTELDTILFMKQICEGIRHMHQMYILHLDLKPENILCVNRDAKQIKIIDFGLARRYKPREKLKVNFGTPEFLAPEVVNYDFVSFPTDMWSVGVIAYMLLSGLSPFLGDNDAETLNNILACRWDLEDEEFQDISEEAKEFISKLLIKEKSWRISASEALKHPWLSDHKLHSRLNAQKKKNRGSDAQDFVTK
Description: as §1

TLK1 = target: T17, TLK1 (Homo sapiens, UniProt Q9UKI8); conditions: 35 at 1 µM; read-out: % inhibition
T17 construct: purchased Eurofins DiscoverX (KINOMEscan)
T17 sequence (Q9UKI8 whole entry): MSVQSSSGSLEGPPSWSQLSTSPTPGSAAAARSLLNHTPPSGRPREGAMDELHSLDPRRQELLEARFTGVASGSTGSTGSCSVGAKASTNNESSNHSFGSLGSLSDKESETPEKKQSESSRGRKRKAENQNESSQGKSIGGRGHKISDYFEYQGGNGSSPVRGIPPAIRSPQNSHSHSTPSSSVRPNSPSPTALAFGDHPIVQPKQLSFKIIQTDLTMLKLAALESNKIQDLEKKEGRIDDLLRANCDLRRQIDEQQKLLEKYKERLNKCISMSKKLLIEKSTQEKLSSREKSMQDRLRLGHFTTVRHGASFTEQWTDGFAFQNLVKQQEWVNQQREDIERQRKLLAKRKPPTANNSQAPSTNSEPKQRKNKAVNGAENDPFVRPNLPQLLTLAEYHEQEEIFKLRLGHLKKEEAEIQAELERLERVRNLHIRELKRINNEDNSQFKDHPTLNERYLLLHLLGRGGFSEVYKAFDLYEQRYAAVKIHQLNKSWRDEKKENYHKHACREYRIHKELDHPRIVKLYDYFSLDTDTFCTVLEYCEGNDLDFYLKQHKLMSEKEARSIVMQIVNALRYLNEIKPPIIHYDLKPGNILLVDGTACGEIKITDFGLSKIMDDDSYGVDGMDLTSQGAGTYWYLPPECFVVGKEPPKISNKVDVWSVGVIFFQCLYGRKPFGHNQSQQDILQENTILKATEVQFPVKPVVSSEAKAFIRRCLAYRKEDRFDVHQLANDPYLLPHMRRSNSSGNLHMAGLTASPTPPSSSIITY
Description: as §1

FER = target: T18, FER (Homo sapiens, UniProt P16591); conditions: 35 at 1 µM; read-out: % inhibition
T18 construct: purchased Eurofins DiscoverX (KINOMEscan)
Description: as §1

ADCK3 = target: T19, ADCK3 (Homo sapiens, UniProt Q8NI60); conditions: 35 at 1 µM; read-out: % inhibition
T19 construct: purchased Eurofins DiscoverX (KINOMEscan)
Description: as §1

EGFR(L858R) = target: T20, EGFR(L858R) (Homo sapiens, UniProt P00533, L858R); conditions: 35 at 1 µM; read-out: % inhibition
T20 construct: purchased Eurofins DiscoverX (KINOMEscan)
Description: as §1

VPS34 = target: T21, VPS34 (Homo sapiens, UniProt Q8NEB9); conditions: 35 at 1 µM; read-out: % inhibition
T21 construct: purchased Eurofins DiscoverX (KINOMEscan)
Description: as §1

BRK = target: T22, BRK (Homo sapiens, UniProt Q13882); conditions: 35 at 1 µM; read-out: % inhibition
T22 construct: purchased Eurofins DiscoverX (KINOMEscan)
Description: as §1

FAK = target: T23, FAK (Homo sapiens, UniProt Q05397); conditions: 35 at 1 µM; read-out: % inhibition
T23 construct: purchased Eurofins DiscoverX (KINOMEscan)
Description: as §1

GSK3B = target: T24, GSK3B (Homo sapiens, UniProt P49841); conditions: 35 at 1 µM; read-out: % inhibition
T24 construct: purchased Eurofins DiscoverX (KINOMEscan)
Description: as §1

TAOK3 = target: T25, TAOK3 (Homo sapiens, UniProt Q9H2K8); conditions: 35 at 1 µM; read-out: % inhibition
T25 construct: purchased Eurofins DiscoverX (KINOMEscan)
T25 sequence (Q9H2K8 whole entry): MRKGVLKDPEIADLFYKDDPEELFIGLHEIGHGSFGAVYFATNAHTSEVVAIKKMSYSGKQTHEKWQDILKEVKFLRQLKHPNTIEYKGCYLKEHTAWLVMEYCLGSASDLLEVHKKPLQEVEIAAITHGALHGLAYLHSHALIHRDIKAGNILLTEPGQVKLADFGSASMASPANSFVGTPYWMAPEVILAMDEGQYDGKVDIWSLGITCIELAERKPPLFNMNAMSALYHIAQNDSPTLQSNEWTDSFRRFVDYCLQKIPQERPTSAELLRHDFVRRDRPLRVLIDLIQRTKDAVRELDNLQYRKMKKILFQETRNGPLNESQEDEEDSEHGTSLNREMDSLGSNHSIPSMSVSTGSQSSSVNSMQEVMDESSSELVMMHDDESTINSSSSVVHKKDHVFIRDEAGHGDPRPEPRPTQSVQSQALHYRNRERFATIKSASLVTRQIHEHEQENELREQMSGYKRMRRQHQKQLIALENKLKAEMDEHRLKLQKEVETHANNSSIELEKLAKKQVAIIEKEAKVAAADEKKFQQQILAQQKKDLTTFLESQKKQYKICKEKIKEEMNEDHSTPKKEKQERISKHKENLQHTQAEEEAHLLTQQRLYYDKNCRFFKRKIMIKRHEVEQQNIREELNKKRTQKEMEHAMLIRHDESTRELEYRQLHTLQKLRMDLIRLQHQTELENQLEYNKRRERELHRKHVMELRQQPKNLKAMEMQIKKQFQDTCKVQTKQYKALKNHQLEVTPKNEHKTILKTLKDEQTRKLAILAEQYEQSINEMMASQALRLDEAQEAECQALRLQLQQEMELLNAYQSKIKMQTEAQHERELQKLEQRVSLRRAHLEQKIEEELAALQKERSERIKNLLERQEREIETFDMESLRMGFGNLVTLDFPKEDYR
Description: as §1

RIPK5 = target: T26, RIPK5 (Homo sapiens, UniProt Q6XUX3); conditions: 35 at 1 µM; read-out: % inhibition
T26 construct: purchased Eurofins DiscoverX (KINOMEscan)
Description: as §1

MEK5 = target: T27, MEK5 (Homo sapiens, UniProt Q13163)
T27 construct: purchased Eurofins DiscoverX (KINOMEscan)
T27 sequence (Q13163 whole entry): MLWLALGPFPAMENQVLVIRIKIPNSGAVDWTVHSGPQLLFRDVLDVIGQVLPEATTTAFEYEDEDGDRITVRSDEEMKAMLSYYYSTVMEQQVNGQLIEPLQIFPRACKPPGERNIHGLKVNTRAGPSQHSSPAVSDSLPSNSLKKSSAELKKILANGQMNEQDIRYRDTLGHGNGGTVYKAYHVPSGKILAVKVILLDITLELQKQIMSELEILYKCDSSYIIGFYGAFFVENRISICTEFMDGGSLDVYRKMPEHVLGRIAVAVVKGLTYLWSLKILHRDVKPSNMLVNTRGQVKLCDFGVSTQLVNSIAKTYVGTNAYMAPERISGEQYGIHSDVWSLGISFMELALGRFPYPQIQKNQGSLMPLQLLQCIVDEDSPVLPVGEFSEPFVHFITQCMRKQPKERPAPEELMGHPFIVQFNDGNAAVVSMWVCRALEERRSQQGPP
Description: as §1

TYRO3 = target: T28, TYRO3 (Homo sapiens, UniProt Q06418); conditions: 35 at 1 µM; read-out: % inhibition
T28 construct: purchased Eurofins DiscoverX (KINOMEscan)
Description: as §1

[1] = target: T29, ABL1(F317L)-phosphorylated (Homo sapiens, UniProt P00519, F317L); conditions: 35 at 1 µM; read-out: % inhibition
T29 construct: purchased Eurofins DiscoverX (KINOMEscan)
Description: as §1

[2] = target: T30, ABL1(F317I)-nonphosphorylated (Homo sapiens, UniProt P00519, F317I); conditions: 35 at 1 µM; read-out: % inhibition
T30 construct: purchased Eurofins DiscoverX (KINOMEscan)
Description: as §1

MARK4 = target: T31, MARK4 (Homo sapiens, UniProt Q96L34); conditions: 35 at 1 µM; read-out: % inhibition
T31 construct: purchased Eurofins DiscoverX (KINOMEscan)
Description: as §1

CAMKK1 = target: T32, CAMKK1 (Homo sapiens, UniProt Q8N5S9); conditions: 35 at 1 µM; read-out: % inhibition
T32 construct: purchased Eurofins DiscoverX (KINOMEscan)
Description: as §1

CDK9 = target: T33, CDK9 (Homo sapiens, UniProt P50750); conditions: 35 at 1 µM; read-out: % inhibition
T33 construct: purchased Eurofins DiscoverX (KINOMEscan)
Description: as §1

AKT3 = target: T34, AKT3 (Homo sapiens, UniProt Q9Y243); conditions: 35 at 1 µM; read-out: % inhibition
T34 construct: purchased Eurofins DiscoverX (KINOMEscan)
Description: as §1

PIK3CA(E542K) = target: T35, PIK3CA(E542K) (Homo sapiens, UniProt P42336, E542K); conditions: 35 at 1 µM; read-out: % inhibition
T35 construct: purchased Eurofins DiscoverX (KINOMEscan)
Description: as §1

FGFR1 = target: T36, FGFR1 (Homo sapiens, UniProt P11362); conditions: 35 at 1 µM; read-out: % inhibition
T36 construct: purchased Eurofins DiscoverX (KINOMEscan)
Description: as §1

NIM1 = target: T37, NIM1 (Homo sapiens, UniProt Q8IY84); conditions: 35 at 1 µM; read-out: % inhibition
T37 construct: purchased Eurofins DiscoverX (KINOMEscan)
Description: as §1

SGK = target: T38, SGK (Homo sapiens, UniProt O00141); conditions: 35 at 1 µM; read-out: % inhibition
T38 construct: purchased Eurofins DiscoverX (KINOMEscan)
Description: as §1

DDR1 = target: T39, DDR1 (Homo sapiens, UniProt Q08345); conditions: 35 at 1 µM; read-out: % inhibition
T39 construct: purchased Eurofins DiscoverX (KINOMEscan)
Description: as §1

SRPK2 = target: T40, SRPK2 (Homo sapiens, UniProt P78362); conditions: 35 at 1 µM; read-out: % inhibition
T40 construct: purchased Eurofins DiscoverX (KINOMEscan)
Description: as §1

[3] = target: T41, RSK4(Kin.Dom.2-C-terminal) (Homo sapiens, UniProt Q9UK32); conditions: 35 at 1 µM; read-out: % inhibition
T41 construct: RSK4(Kin.Dom.2-C-terminal); purchased Eurofins DiscoverX (KINOMEscan)
Description: as §1

RIOK1 = target: T42, RIOK1 (Homo sapiens, UniProt Q9BRS2); conditions: 35 at 1 µM; read-out: % inhibition
T42 construct: purchased Eurofins DiscoverX (KINOMEscan)
Description: as §1

## Brc1ccc2nccc(Nc3ccc4cn[nH]c4c3)c2c1 [Compound 35, 6-Bromo-N-(1H-indazol-6-yl)quinolin-4-amine]
AURKB
  activity at 1 µM: 90%
YANK2
  activity at 1 µM: 100%
CAMK1
  activity at 1 µM: 100%
TXK
  activity at 1 µM: 100%
INSRR
  activity at 1 µM: 100%
YSK4
  activity at 1 µM: 98%
LRRK2(G2019S)
  activity at 1 µM: 73%
CAMK1G
  activity at 1 µM: 100%
MAP4K2
  activity at 1 µM: 100%
EPHA6
  activity at 1 µM: 100%
PIK3CA(M1043I)
  activity at 1 µM: 99%
CASK
  activity at 1 µM: 68%
CTK
  activity at 1 µM: 93%
BRSK1
  activity at 1 µM: 100%
PHKG2
  activity at 1 µM: 95%
MYLK4
  activity at 1 µM: 100%
TLK1
  activity at 1 µM: 95%
FER
  activity at 1 µM: 96%
ADCK3
  activity at 1 µM: 100%
EGFR(L858R)
  activity at 1 µM: 100%
VPS34
  activity at 1 µM: 100%
BRK
  activity at 1 µM: 93%
FAK
  activity at 1 µM: 99%
GSK3B
  activity at 1 µM: 97%
TAOK3
  activity at 1 µM: 97%
RIPK5
  activity at 1 µM: 100%
MEK5; 35 at 1 µM, read-out: % inhibition
  activity at 1 µM: 11%
MEK5; KinomeScan, screened at 1 μM, read-out: kinases inhibited at 1 μM: MEK5
  inhibition at 1 µM: 89%
TYRO3
  activity at 1 µM: 99%
[1]
  activity at 1 µM: 85%
[2]
  activity at 1 µM: 77%
MARK4
  activity at 1 µM: 100%
CAMKK1
  activity at 1 µM: 100%
CDK9
  activity at 1 µM: 75%
AKT3
  activity at 1 µM: 100%
PIK3CA(E542K)
  activity at 1 µM: 100%
FGFR1
  activity at 1 µM: 100%
NIM1
  activity at 1 µM: 88%
SGK
  activity at 1 µM: 100%
DDR1
  activity at 1 µM: 79%
SRPK2
  activity at 1 µM: 100%
[3]
  activity at 1 µM: 81%
RIOK1
  activity at 1 µM: 100%
